Test results: PMC4428790, “In Silico and In Vitro Analysis of Bacoside A Aglycones and Its Derivatives as the Constituents Responsible for the Cognitive Effects of Bacopa monnieri” (PLoS ONE, 2015)

Assays:
[1] = target: T1, M1 receptor (recombinant human membrane, CHO cells) (Homo sapiens, UniProt P11229); assay: radioligand receptor binding assay, [3H]-NMS displacement; details: for IC50: mean ± S.D., 0.1 nM [3H]-NMS, assayed up to 100 or 30 μM
T1 construct: purchased Perkin Elmer Lot no; 1706299; host or cells: CHO cells
T1 sequence (P11229 1-460): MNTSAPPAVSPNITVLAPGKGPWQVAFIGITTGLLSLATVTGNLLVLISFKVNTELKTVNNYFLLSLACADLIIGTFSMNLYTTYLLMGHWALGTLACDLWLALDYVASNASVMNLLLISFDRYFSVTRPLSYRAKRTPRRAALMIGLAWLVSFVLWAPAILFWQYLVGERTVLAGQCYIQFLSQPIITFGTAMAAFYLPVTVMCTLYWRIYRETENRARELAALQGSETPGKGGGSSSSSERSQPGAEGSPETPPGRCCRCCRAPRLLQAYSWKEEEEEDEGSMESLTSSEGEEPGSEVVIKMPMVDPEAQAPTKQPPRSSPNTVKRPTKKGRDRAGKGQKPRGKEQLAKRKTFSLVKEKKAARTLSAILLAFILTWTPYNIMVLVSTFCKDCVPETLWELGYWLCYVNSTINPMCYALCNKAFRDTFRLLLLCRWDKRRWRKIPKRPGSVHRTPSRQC
Text: (§1) Recombinant human membrane preparations for M1 (expressed in CHO cells; Lot no. 1706299), 5-HT1A (HEK293 cells; no. 1812363), 5-HT2A (CHO cells; no. 1813092), D1 (L cells; no. 1840059), and D2S (CHO cells; no. 1820984) receptors and MicroScint-O scintillation cocktail were procured from Perkin Elmer (Waltham, MA, USA). [^3H] N-methylscopolamine (NMS), [^3H] 8-OH-DPAT, [^3H] ketanserin, [^3H] SCH 23390 and [^3H] methylspiperone were purchased from American Radiolabeled Chemicals (St. Louis, MO, USA). […] (DTNB) and donepezil hydrochloride were obtained from Sigma-Aldrich (St. Louis, MO, USA). Bacoside A, bacoside A3, bacopaside II, bacopaside X and bacopasaponin C were purchased from Chromadex Inc. (Irvine, CA, USA). Jujubogenin and ebelin lactone were purchased from Shanghai IS Chemical Technology Ltd. (Jinshan, Shanghai, China). Unless stated otherwise, all other reagents of analytical grade were obtained through standard commercial sources.
(§2) The assay was performed according to the methods published previously. […] Pseudojujubogenin and bacogenin A1 were not available for purchase at the time when the work was carried out. All compounds were dissolved in dimethylsulfoxide (DMSO) and the solvent was kept below 1% (v/v) in the final reaction mixture. Briefly, in each well, 100 μl of the respective membrane preparations (μg/well), 50 μl of the respective [^3H]-ligand and 50 μl of the test compounds were added and the total assay reaction volume was made up to 200 μl by adding assay buffer. […] The reaction mixture was incubated for 60 or 120 min at room temperature or 37°C for the respective membranes. The reaction was stopped by rapid filtration onto GF/C filter plates (presoaked in 0.5% polyethyleneimine) using FilterMate (Perkin Elmer) cell harvester and washed with wash buffer (200 μl for 5 times) to remove unbound ligands. The filter plates were dried at 60°C for 15 minutes before the application of Bottom Seal and addition of 50 μl MicroScint-O scintillation cocktail. The top of the plate was then sealed with TopSeal A. Radioactivity (CPM) was counted using TopCount NXT microplate scintillation counter (Perkin-Elmer). The data were analyzed by non-linear regression using Prism Version 5.0 (GraphPad Inc., San Diego CA, USA). The percentage of specific binding of radioligand in the presence of test compounds was calculated using the standard data reduction algorithm: ([B-NSB] / [TB-NSB]) × 100) where B is the binding in the presence of test compounds, NSB is the non-specific binding in the presence of excess reference ligand and TB is the total binding. K i values were calculated from the IC50 values using the Cheng-Prusoff equation [26].

[2] = target: T2, 5-HT1A receptor (recombinant human membrane, HEK293 cells) (Homo sapiens, UniProt P08908); assay: radioligand receptor binding assay, [3H]-8-OH-DPAT displacement; details: mean ± S.D.; 2 nM [3H]-8-OH-DPAT; assayed up to 100 or 30 μM
T2 construct: purchased Perkin Elmer Lot no; 1812363; host or cells: HEK293 cells
T2 sequence (P08908 1-422): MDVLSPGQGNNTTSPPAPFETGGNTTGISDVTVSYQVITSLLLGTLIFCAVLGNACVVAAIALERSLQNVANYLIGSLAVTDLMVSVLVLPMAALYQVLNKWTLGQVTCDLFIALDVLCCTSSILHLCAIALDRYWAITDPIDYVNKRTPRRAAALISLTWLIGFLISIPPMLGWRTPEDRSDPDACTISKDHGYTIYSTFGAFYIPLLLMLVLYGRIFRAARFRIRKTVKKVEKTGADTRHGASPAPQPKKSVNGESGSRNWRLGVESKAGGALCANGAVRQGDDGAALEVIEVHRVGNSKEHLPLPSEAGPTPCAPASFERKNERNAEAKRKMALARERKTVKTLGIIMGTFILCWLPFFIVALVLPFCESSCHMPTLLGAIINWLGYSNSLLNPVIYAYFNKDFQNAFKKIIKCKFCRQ
Text: as §1, §2

[3] = target: T3, 5-HT2A receptor (recombinant human membrane, CHO cells) (Homo sapiens, UniProt P28223); assay: radioligand receptor binding assay, [3H]-ketanserin displacement; details: for IC50: mean ± S.D., 1 nM [3H]-ketanserin, assayed up to 100 or 30 μM
T3 construct: purchased Perkin Elmer Lot no; 1813092; host or cells: CHO cells
Text: as §1, §2

[4] = target: T4, D1 receptor (recombinant human membrane, L cells) (Homo sapiens, UniProt P21728); assay: radioligand receptor binding assay, [3H]-SCH 23390 displacement; details: for IC50: mean ± S.D., 0.2 nM [3H]-SCH 23390, assayed up to 100 or 30 μM
T4 construct: purchased Perkin Elmer Lot no; 1840059; host or cells: L cells
Text: as §1, §2

[5] = target: T5, D2S receptor (recombinant human membrane, CHO cells) (Homo sapiens, UniProt P14416); assay: radioligand receptor binding assay, [3H]-methylspiperone displacement; details: mean ± S.D.; 0.2 nM [3H]-methylspiperone; assayed up to 100 or 30 μM; read-out: IC50 D2
T5 construct: purchased Perkin Elmer Lot no; 1820984; host or cells: CHO cells
Text: as §1, §2

M1 = target: M1; set-up: method as in PMID 24979399; details: M1 agonists; cited from earlier work
[6] = from IC50 by Cheng-Prusoff equation

T5 sequence (P14416 1-414 isoform P14416-2): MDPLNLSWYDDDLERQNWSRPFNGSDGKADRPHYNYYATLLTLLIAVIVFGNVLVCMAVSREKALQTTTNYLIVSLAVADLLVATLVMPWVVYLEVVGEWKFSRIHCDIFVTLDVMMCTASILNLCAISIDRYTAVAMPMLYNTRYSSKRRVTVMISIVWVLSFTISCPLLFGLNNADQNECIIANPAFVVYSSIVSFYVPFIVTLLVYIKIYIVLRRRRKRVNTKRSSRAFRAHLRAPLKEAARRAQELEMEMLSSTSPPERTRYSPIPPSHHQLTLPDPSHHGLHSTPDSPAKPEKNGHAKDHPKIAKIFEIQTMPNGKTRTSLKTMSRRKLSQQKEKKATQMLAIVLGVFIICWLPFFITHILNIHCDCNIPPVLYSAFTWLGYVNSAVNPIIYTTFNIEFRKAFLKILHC
T3 sequence (P28223 whole entry): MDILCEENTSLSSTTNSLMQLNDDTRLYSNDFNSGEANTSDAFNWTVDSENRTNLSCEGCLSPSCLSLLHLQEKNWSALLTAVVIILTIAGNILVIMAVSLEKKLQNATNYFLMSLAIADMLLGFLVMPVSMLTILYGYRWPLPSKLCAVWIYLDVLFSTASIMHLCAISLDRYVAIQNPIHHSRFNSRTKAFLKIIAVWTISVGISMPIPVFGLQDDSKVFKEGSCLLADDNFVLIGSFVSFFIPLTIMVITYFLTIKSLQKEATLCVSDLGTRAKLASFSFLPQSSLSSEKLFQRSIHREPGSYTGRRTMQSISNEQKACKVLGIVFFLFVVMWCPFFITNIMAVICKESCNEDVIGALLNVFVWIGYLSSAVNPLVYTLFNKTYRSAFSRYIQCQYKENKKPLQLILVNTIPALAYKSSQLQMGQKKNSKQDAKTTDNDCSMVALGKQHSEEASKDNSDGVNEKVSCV
T4 sequence (P21728 whole entry): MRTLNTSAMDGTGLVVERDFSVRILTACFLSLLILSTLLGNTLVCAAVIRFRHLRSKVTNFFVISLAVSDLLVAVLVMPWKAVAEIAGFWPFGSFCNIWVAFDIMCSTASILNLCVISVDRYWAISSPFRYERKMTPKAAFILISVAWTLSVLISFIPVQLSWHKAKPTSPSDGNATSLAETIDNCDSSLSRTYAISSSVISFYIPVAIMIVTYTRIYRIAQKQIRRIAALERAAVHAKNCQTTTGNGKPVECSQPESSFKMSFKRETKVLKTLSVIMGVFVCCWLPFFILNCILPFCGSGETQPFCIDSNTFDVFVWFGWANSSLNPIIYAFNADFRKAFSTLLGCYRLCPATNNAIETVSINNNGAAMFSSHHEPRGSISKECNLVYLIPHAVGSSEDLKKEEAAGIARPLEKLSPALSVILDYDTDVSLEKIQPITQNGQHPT

Which IC50 [1] does the source give for `CC(C)=C[C@@H]1CO[C@]23C[C@]4(CO2)[C@H](CC[C@@H]2[C@@]5(C)CC[C@H](O[C@@H]6OC[C@H](O)[C@H](O[C@@H]7O[C@H](CO)[C@@H](O)[C@H](O)[C@H]7O)[C@H]6O[C@@H]6O[C@@H](CO)[C@H](O)[C@H]6O)C(C)(C)[C@@H]5CC[C@]24C)[C@H]3[C@@]1(C)O` [Bacopasaponin C, bacopasaponin C] here?
Its IC50 is > 100 µM.

What about the IC50 [2] of the same compound?
The IC50 was > 100 µM.

And the IC50 [3]?
Its IC50 is > 100 µM.

What about the IC50 [4] of the same compound?
Its IC50 is > 100 µM.

And the IC50 [5]?
The IC50 was > 100 µM.

Which results are given for `CC(C)=CC1COC23CC4(CO2)C(CCC2C5(C)CCC(OC6OC(CO)C(O)C(OC7OC(CO)C(O)C(O)C7O)C6OC6OC(CO)C(O)C6O)C(C)(C)C5CCC24C)C3C1(C)O` (stereo not shown) [Bacopaside II, bacopaside II]?
IC50 [1]: > 30 µM; IC50 [2]: > 30 µM; IC50 [3]: > 30 µM; IC50 [4]: > 30 µM; IC50 [5]: > 30 µM

For `CC(C)=C[C@H]1C[C@](C)(O)[C@@H]2[C@H]3CC[C@@H]4[C@@]5(C)CC[C@H](O[C@@H]6OC[C@H](O)[C@H](O[C@@H]7O[C@H](CO)[C@@H](O)[C@H](O)[C@H]7O)[C@H]6O[C@@H]6O[C@@H](CO)[C@H](O)[C@H]6O)C(C)(C)[C@@H]5CC[C@@]4(C)[C@@]34CO[C@@]2(C4)O1` [Bacopaside X, bacopaside X], which IC50 [1] is on record?
Its IC50 is > 100 µM.

What about the IC50 [2] of the same compound?
The IC50 was > 100 µM.

And the IC50 [3]?
Its IC50 is > 100 µM.

What about the Ki [4, 6] of the same compound?
The Ki was 9.06 µM.

What about the IC50 [4] of the same compound?
The IC50 was 19.5 ± 3.07 µM.

What about the IC50 [5] of the same compound?
Its IC50 is > 100 µM.

What does the source list for `CC(C)=C[C@H]1C[C@](C)(O)[C@@H]2[C@H]3CC[C@@H]4[C@@]5(C)CC[C@H](O[C@@H]6O[C@H](CO)[C@@H](O)[C@H](O[C@@H]7O[C@H](CO)[C@@H](O)[C@H](O)[C@H]7O)[C@H]6O[C@@H]6O[C@@H](CO)[C@H](O)[C@H]6O)C(C)(C)[C@@H]5CC[C@@]4(C)[C@@]34CO[C@@]2(C4)O1` [Bacoside A3, bacoside A3]?
IC50 [1]: > 100 µM; IC50 [2]: > 100 µM; IC50 [3]: > 100 µM; IC50 [4]: > 100 µM; IC50 [5]: > 100 µM

Which results are given for `CC(C)=CC=CC(C)=CC1CCC2C3(C)CCC(O)C(C)(C)C3CCC2(C)C12COC(=O)C2` (stereo not shown) [Ebelin Lactone, ebelin lactone]?
Ki [1, 6]: 0.45 µM; IC50 [1]: 0.8 ± 0.19 µM; IC50 [2]: > 30 µM; Ki [3, 6]: 4.21 µM; IC50 [3]: 14.5 ± 4.98 µM; IC50 [4]: > 30 µM; IC50 [5]: > 30 µM

Which IC50 [1] does the source give for `CC(C)=CC1CC(C)(O)C2C3CCC4C5(C)CCC(O)C(C)(C)C5CCC4(C)C34COC2(C4)O1` (stereo not shown) [Jujubogenin, jujubogenin] here?
The IC50 was > 30 µM.

And the IC50 [2]?
Its IC50 is > 30 µM.

What about the IC50 [3] of the same compound?
Its IC50 is > 30 µM.

And the IC50 [4]?
Its IC50 is > 30 µM.

What about the IC50 [5] of the same compound?
The IC50 was > 30 µM.

Which Ki (M1) does the source give for `CC(=O)OCC[N+](C)(C)C` [acetylcholine] here?
The Ki was 59 µM.
